The text below walks through data of patent publication US12410171B2, “Tropomyosin receptor kinase (TRK) degradation compounds and methods of use” (Cullgen (Shanghai), Inc., priority 2020, dated 2025).

Where two headings read alike, the source gives them in different places.

Test [1] concerns the target T1, TPM3-TRKA fusion protein (Homo sapiens, UniProt P04629).
T1 construct: The resulted chimeric proteins always retain the kinase domain of TRK proteins; TPM3 (fusion partner, N-terminal part of tropomyosin alpha-3, P06753); endogenous in cells; host or cells: KM12 colon cancer cells; the other entry of the earlier key: TPM3 (P06753, Tropomyosin alpha-3 chain)
The experiment in a line: TPM3-TRKA fusion protein levels in KM12 cells (Western blot). As to conditions: read-out: Degradation (at 10 nM). The class given is cell-based. The essentials: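 TPM3-TRKA levels were assessed by Western blot with chemiluminescent detection and band densitometry, after SDS-PAGE of BCA-normalized RIPA lysates. Before lysis, KM12 cells received DMSO, compounds or matched control compounds at concentrations including 0.1, 1, 10 and 100 nM and 0.4–30 nM. Exposures lasted 4 h, 8–16 h or 16 h.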

For test [2], the system named is KM12 cells. Kind of test: KM12 cell viability (CellTiter-Glo). The test is classed as cell-based. The note with it: Homo sapiens. In a few lines:
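Three-day exposure of KM12 cells (5000/well, RPMI 1640 with 10% FBS, 37 °C, 5% CO2) to compound dilution series, 3-fold over 8 or 11 points (top 1000 nM in the 8-point format) or 2-fold over 12. CellTiter-Glo readout, with IC50 fitted by nonlinear least-squares regression.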

[3] abbreviates: 16 h, TPM3-TRKA degradation in KM12 cells at 10 nM compound, category of percentage degradation.
The mark [4] stands for this setting: 72 h, KM12 cell viability, CellTiter-Glo, three days treatment, read-out: IC50.

T1 sequence (P04629 with tags, fused parts or gaps): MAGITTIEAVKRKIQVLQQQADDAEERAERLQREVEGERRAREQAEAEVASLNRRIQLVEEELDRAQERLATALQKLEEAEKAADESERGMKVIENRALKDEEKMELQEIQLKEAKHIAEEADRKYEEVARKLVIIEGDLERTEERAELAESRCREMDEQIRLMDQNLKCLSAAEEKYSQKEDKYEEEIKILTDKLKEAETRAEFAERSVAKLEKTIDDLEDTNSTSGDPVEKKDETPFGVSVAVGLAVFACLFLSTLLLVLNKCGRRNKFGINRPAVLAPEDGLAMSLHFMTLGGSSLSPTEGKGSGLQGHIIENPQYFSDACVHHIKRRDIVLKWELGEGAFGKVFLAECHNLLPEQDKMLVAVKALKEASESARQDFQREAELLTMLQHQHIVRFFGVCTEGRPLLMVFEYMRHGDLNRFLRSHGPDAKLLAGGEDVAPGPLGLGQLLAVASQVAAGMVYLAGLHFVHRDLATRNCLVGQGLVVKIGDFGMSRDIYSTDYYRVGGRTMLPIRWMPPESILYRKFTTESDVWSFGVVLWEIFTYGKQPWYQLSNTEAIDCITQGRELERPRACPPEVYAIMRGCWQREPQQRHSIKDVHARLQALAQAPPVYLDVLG

For the molecule `Cn1c(=O)n(C2CCC(=O)NC2=O)c2ccc(C#CCCN3CCN(c4ccc(C(=O)Nc5n[nH]c6ccc(Cc7cc(F)cc(F)c7)cc56)c(NC5CCOCC5)c4)CC3)cc21` (centres unmarked) [TR-319, N-(5-(3,5-difluorobenzyl)-1H-indazol-3-yl)-4-(4-(4-(1-(2,6-dioxopiperidin-3-yl)-3-methyl-2-oxo-2,3-dihydro-1H-benzo[d]imidazol-5-yl)but-3-yn-1-yl)piperazin-1-yl)-2-((tetrahydro-2H-pyran-4-yl)amino)benzamide], in test [1] (setting [3]), the percent degradation of TPM3-TRKA protein at 0.01 µM is > 80%. In addition, the IC50 in test [2] (setting [4]) came to 5.7 nM.

Turning to `Cn1c(=O)n(C2CCC(=O)NC2=O)c2ccc(CCCCN3CCN(c4ccc(C(=O)Nc5n[nH]c6ccc(Cc7cc(F)cc(F)c7)cc56)c(NC5CCOCC5)c4)CC3)cc21` (stereo not drawn) [TR-320, N—(S-(3,5-difluorobenzyl)-1H-indazol-3-yl)-4-(4-(4-(1-(2,6-dioxopiperidin-3-yl)-3-methyl-2-oxo-2,3-dihydro-1H-benzo[d]imidazol-5-yl)butyl)piperazin-1-yl)-2-((tetrahydro-2H-pyran-4-yl)amino)benzamide], the percent degradation of TPM3-TRKA protein at 0.01 µM in test [1] (setting [3]) was > 80%. Further, in test [2] (setting [4]), the IC50 is 1.4 nM.

As for `Cn1c(=O)n(C2CCC(=O)NC2=O)c2ccc(N3CC(CN4CCN(c5ccc(C(=O)Nc6n[nH]c7ccc(Cc8cc(F)cc(F)c8)cc67)c(NC6CCOCC6)c5)CC4)C3)cc21` (centres unmarked) [TR-321, N-(5-(3,5-difluorobenzyl)-1H-indazol-3-yl)-4-(4-((1-(1-(2,6-dioxopiperidin-3-yl)-3-methyl-2-oxo-2,3-dihydro-1H-benzo[d]imidazol-5-yl)azetidin-3-yl)methyl)piperazin-1-yl)-2-((tetrahydro-2H-pyran-4-yl)amino)benzamide], the percent degradation of TPM3-TRKA protein at 0.01 µM in test [1] (setting [3]) is > 80%. In addition, in test [2] (setting [4]), the IC50 amounted to 2.3 nM.

As to `Cn1c(=O)n(C2CCC(=O)NC2=O)c2cccc(OCCN3CCN(c4ccc(C(=O)Nc5n[nH]c6ccc(Cc7cc(F)cc(F)c7)cc56)c(NC5CCOCC5)c4)CC3)c21` (centres unmarked) [TR-322, N-(5-(3,5˜Difluorobenzyl)-1H-indazol-3-yl)-4-(4-(2-((1-(2,6-dioxopiperidin-3-yl)-3-methyl-2-oxo-2,3-dihydro-1H-benzo[d]imidazol-4-yl)oxy)ethyl)piperazin-1-yl)-2-((tetrahydro-2H-pyran˜4-yl)amino)benzamide], in test [1] (KM12, 16 h), the percent degradation of TPM3-TRKA protein at 0.01 µM was < 50%. This molecule also had an IC50 in test [2] (KM12, 72 h) of 168 nM.

For the molecule `O=C1CCC(N2Cc3cc(C#CC4CCN(c5ccc(C(=O)Nc6n[nH]c7ccc(Cc8cc(F)cc(F)c8)cc67)c(NC6CCOCC6)c5)CC4)ccc3C2=O)C(=O)N1` (centres unmarked) [TR-323, N-(5-(3,5-Difluorobenzyl)-1H-indazol-3-yl)-4-(4-((2-(2,6-dioxopiperidin-3-yl)-1-oxoisoindolin-5-yl)ethynyl)piperidin-1-yl)-2-((tetrahydro-2H-pyran-4-yl)amino)benzamide], in test [1] (KM12, 16 h), the percent degradation of TPM3-TRKA protein at 0.01 µM is > 80%. For the same molecule, in test [2] (setting [4]), the IC50 stood at 31 nM.

With `Cn1c(=O)n(C2CCC(=O)NC2=O)c2ccc(NCCN3CCN(c4ccc(C(=O)Nc5n[nH]c6ccc(Cc7cc(F)cc(F)c7)cc56)c(NC5CCOCC5)c4)CC3)cc21` (centres unmarked) [TR-324, N-(5-(3,5-difluorobenzyl)-1H-indazol-3-yl)-4-(4-(2-((1-(2,6-dioxopiperidin-3-yl)-3-methyl-2-oxo-2,3-dihydro-1H-benzo[d]imidazol-5-yl)amino)ethyl)piperazin-1-yl)-2-((tetrahydro-2H-pyran-4-yl)amino)benzamide], in test [1] (KM12, 16 h), the percent degradation of TPM3-TRKA protein at 0.01 µM was > 80%. Also, in test [2] (KM12, 72 h), half-maximal inhibition (IC50) was put at 1.3 nM.

With `Cn1c(=O)n(C2CCC(=O)NC2=O)c2cccc(NCCN3CCN(c4ccc(C(=O)Nc5n[nH]c6ccc(Cc7cc(F)cc(F)c7)cc56)c(NC5CCOCC5)c4)CC3)c21` (centres unmarked) [TR-325, N-(5-(3,5-difluorobenzyl)-1H-indazol-3-yl)-4˜ (4-(2-((1-(2,6-dioxopiperidin-3-yl)-3-methyl-2-oxo-2,3-dihydro-1H-benzo[d]imidazol-4-yl)amino)ethyl)piperazin-1-yl)-2-((tetrahydro-2H-pyran-4-yl)amino)benzamide], in test [1] (KM12, 16 h), the percent degradation of TPM3-TRKA protein at 0.01 µM was > 80%. Also, it took 13 nM to reach half-maximal inhibition in test [2] (KM12, 72 h) (IC50).

As for `O=C1CCC(n2nnc3cccc(N4CC(CN5CCN(c6ccc(C(=O)Nc7n[nH]c8ccc(Cc9cc(F)cc(F)c9)cc78)c(NC7CCOCC7)c6)CC5)C4)c3c2=O)C(=O)N1` (centres unmarked) [TR-326, N-(5-(3,5-Difluorobenzyl)-1H-indazol-3-yl)-4-(4-((1˜ (3-(2,6-dioxopiperidin-3-yl)-4-oxo-3,4-dihydrobenzo[d][1,2,3]triazin-5-yl)azetidin-3-yl)methyl)piperazin-1-yl)-2-((tetrahydro-2H-pyran-4-yl)amino)benzamide], in test [1] (setting [3]), the percent degradation of TPM3-TRKA protein at 0.01 µM was in the range of 50 to 80%. The half-inhibitory concentration (IC50) in test [2] (setting [4]) worked out at 14 nM.

For the molecule `O=C1CCC(n2nnc3cccc(N4CC(CCN5CCN(c6ccc(C(=O)Nc7n[nH]c8ccc(Cc9cc(F)cc(F)c9)cc78)c(NC7CCOCC7)c6)CC5)C4)c3c2=O)C(=O)N1` (centres unmarked) [TR-327, N-(5-(3,5-Difluorobenzyl)-1H-indazol-3-yl)-4-(4-(2-(1-(3-(2,6-dioxopiperidin-3-yl)-4-oxo-3,4-dihydrobenzo[d][1,2,3]triazin-5-yl)azetidin-3-yl)ethyl)piperazin-1-yl)-2-((tetrahydro-2/-pyran-4-yl)amino)benzamide], the percent degradation of TPM3-TRKA protein at 0.01 µM in test [1] (setting [3]) fell in the range of 50 to 80%. Also, the IC50 in test [2] (setting [4]) was 13.3 nM.

Take `O=C1CCC(N2C(=O)c3ccc(C4CN(CC5CCN(c6ccc(C(=O)Nc7n[nH]c8ccc(Cc9cc(F)cc(F)c9)cc78)c(NC7CCOCC7)c6)CC5)C4)cc3C2=O)C(=O)N1` (centres unmarked) [TR-328, N-(5-(3,5-Difluorobenzyl)-1H-indazol-3-yl)-4-(4-((3˜ (2-(2,6-dioxopiperidin-3-yl)-1,3-dioxoisoindolin-5-yl)azetidin-1-yl)methyl)piperidin-1-yl)-2-((tetrahydro-2/7-pyran-4-yl)amino)benzamide]: the percent degradation of TPM3-TRKA protein at 0.01 µM in test [1] (setting [3]) was > 80%. Further, the IC50 in test [2] (setting [4]) amounted to 35.9 nM.

As to `O=C1CCC(N2Cc3cc(C4CN(CC5CCN(c6ccc(C(=O)Nc7n[nH]c8ccc(Cc9cc(F)cc(F)c9)cc78)c(NC7CCOCC7)c6)CC5)C4)ccc3C2=O)C(=O)N1` (centres unmarked) [TR-330, N-(5-(3,5-Difluorobenzyl)-1H-indazol-3-yl)-4-(4-((3-(2-(2,6-dioxopiperidin-3-yl)-1-oxoisoindolin-5-yl)azetidin-1-yl)methyl)piperidin-1-yl)-2-((tetrahydro-2H-pyran-4-yl)amino)benzamide], the percent degradation of TPM3-TRKA protein at 0.01 µM in test [1] (setting [3]) is > 80%. Besides, the half-inhibitory concentration (IC50) in test [2] (setting [4]) turned out to be 28.5 nM.

As for `O=C1CCC(N2Cc3cc(N4CC(N5CCN(c6cccc(-c7cnc8ccc(N9CCC[C@@H]9c9cccc(F)c9)nn78)n6)CC5)C4)ccc3C2=O)C(=O)N1` (stereo partly drawn) [TR-331, 3-(5-(3-(4-(6-(6-((R)-2-(3-fluorophenyl)pyrrolidin-1-yl)imidazo[1,2-b]pyridazin-3-yl)pyridin-2-yl)piperazin-1-yl)azetidin-1-yl)-1-oxoisoindolin-2-yl)piperidine-2,6-dione], in test [1] (setting [3]), the percent degradation of TPM3-TRKA protein at 0.01 µM was > 80%. Moreover, the IC50 in test [2] (setting [4]) amounted to 1.6 nM.

`O=C1CCC(N2Cc3cc(N4CC(N5CCN(c6ccc(C(=O)Nc7n[nH]c8ccc(Cc9cc(F)cc(F)c9)cc78)c(NC7CCOCC7)c6)CC5)C4)ccc3C2=O)C(=O)N1` (centres unmarked) [TR-332, N-(5-(3,5-difluorobenzyl)-1H-indazol-3-yl)-4-(4-(1-(2-(2,6-dioxopiperidin-3-yl)-1-oxoisoindolin-5-yl)azetidin-3-yl)piperazin-1-yl)-2-((tetrahydro-2H-pyran-4-yl)amino)benzamide]: in test [1] (setting [3]), the percent degradation of TPM3-TRKA protein at 0.01 µM was > 80%. For the same molecule, the IC50 in test [2] (setting [4]) is 1.7 nM.
